Measurements: patent publication EP0636633A1, “A triterpenoid saponin, extraction thereof and use to treat or prevent diabetes mellitus” (KOWA CHEMICAL INDUSTRIES CO., LTD., priority 1993, dated 1995)

Assays:
DDF male mice = assay: Acute toxicity test, forced oral administration; settings: for Number of dead animals: mouse, in vivo, po
Method: An acute toxicity test was effected by the following procedure.
Use was made of DDF male mice having a weight of 25 g, and each group consisted of 10 animals. The animals were ingested a solid feed (for breeding) while they freely got tap water as drinking water.
The triterpenoid saponin was suspended in 1% CMC physiological saline to a concentration of 200 mg/ml.
The test substance was administered with a probe by forced oral administration. The dose was 5000 mg/kg for one group and 2500 mg/kg for another group. Test period was 7 days. After the administration, the animals were continuously observed for 3 hr, and, thereafter, observation was effected of general symptoms every 6 hr.

sweet taste responses = assay: sweet taste response inhibition test; format: in vivo; settings: for taste of Aqueous Sucrose Solution, panelists ①②③④⑤: after 0.08% sample solution kept in mouth 2 min
Method: A sweet taste response inhibition test was effected for the triterpenoid saponin of the present invention and Gymnemic acid 1 and Gymnemic acid 2 obtained from Gymnema sylvestre, R. Br. known to have an inhibitory effect on glucose adsorption.
The triterpenoid saponin prepared in Example 1 and Gymnemic acid 1 and Gymnemic acid 2 were dissolved in a 0.01 M/liter aqueous sodium bicarbonate (NaHCO₃) solution to prepare a 0.08% triterpenoid saponin solution, a 0.08% Gymnemic acid 1 solution and a 0.08 % Gymnemic acid 2 solution.
Separately, 0.1 M/liter, 0.2 M/liter, 0.3 M/liter, 0.4 M/liter and 0.5 M/liter aqueous sucrose solutions were previously prepared. The sweet taste response inhibition test was effected according to the following procedure.
• 1) 5 ml of the triterpenoid saponin solution or Gymnemic acid 1 or 2 solution was kept in mouth so that it was spread in the whole mouth. • 2) 2 min after that, the sample solution was spit out, and the mouth was sufficiently rinsed with distilled water. • 3) The above-described aqueous sucrose solutions were successively kept in the mouth in the order of concentration from the lowest to the highest, and the sucrose concentration of the solution which was first sweet to the taste was recorded.

CC1(C)CC[C@]2(CO)[C@@H](O)C[C@]3(C)C(=CC[C@@H]4[C@@]5(C)CC[C@H](O[C@@H]6O[C@H](C(=O)O)[C@@H](O)[C@H](O)[C@H]6O[C@@H]6O[C@H](CO)[C@@H](O)[C@H](O)[C@H]6O)C(C)(C)[C@@H]5CC[C@]43C)[C@@H]2C1 [triterpenoid saponin, (3β,16β)-16,28-dihydroxyolean-12-en-3-yl-2-O-β-D-glucopyranosyl-β-D-glucopyranosiduronic acid]
Other general symptoms (DDF male mice; Dose 2500 mg/kg, oral, 7 days): Do. | Other general symptoms (DDF male mice; Dose 5000 mg/kg, oral, 7 days): None of the animals exhibited any abnormal symptom. | toxicity (DDF male mice; acute toxicity test, oral, mice, 7 days): no toxicity was observed | Number of dead animals (DDF male mice; 2500 mg/kg): 0 | Number of dead animals (DDF male mice; 5000 mg/kg): 0 | inhibitory effect on the sweet taste responses (sweet taste responses; 0.08% sample solution): no inhibitory effect on the sweet taste responses | taste of Aqueous Sucrose Solution, panelists ①②③④⑤ (sweet taste responses; sucrose 0.1 M/liter): Δ○○Δ○ | taste of Aqueous Sucrose Solution, panelists ①②③④⑤ (sweet taste responses; sucrose 0.2 M/liter): ○○○○○
